melting point: 51 °C
SMILES: O=C1CCCCC1Sc1ncccn1 (stereo not shown) [Compound 03-43, 2-(Pyrimidin-2-ylsulfanyl)-cyclohexanone]
